Reference: patent US20030050306A1, “Novel heteroaryl derivatives, their preparation and use” (H. Lundbeck A/S, priority 1999, published 2003)

Tests used:
[1] = target: T1, human cloned dopamine D4.2 receptors (Homo sapiens, UniProt P21917, DEL265-296); assay: Inhibition of the binding of 3H-YM-09151-2 to human dopamine D4 receptors; conditions: human cloned dopamine D4.2 receptors in CHO-cells
T1 construct: expressed in transfected cells; host or cells: CHO cells
T1 sequence (P21917 with tags, fused parts or gaps DEL265-296): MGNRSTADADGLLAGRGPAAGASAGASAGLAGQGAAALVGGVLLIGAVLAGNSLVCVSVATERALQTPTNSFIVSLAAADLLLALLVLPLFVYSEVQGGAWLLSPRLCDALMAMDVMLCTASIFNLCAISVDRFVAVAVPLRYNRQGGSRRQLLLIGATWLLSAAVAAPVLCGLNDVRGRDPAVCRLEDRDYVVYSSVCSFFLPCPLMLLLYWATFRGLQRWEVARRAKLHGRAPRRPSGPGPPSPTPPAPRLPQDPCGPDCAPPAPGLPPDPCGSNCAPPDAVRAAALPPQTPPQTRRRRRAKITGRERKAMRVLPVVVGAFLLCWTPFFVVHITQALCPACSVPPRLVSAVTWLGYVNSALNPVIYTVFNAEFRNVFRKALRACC
Method: The compounds of the invention have also been tested for their affinity to dopamine D4 receptors in the following test.
Inhibition of the Binding of ^3H-YM-09151-2 to Human Dopamine D4 Receptors
By this method the inhibition by drugs of the binding of [^3H]YM-09151-2 (0.06 nM) to membranes of human cloned dopamine D4.2 receptors expressed in CHO-cells is determined in vitro. Method modified from NEN Life Science Products, Inc., technical data certificate PC2533-10/96.

[2] = target: T2, cloned human 5-HT1A receptors (Homo sapiens, UniProt P08908); assay: Inhibition of 3H-5-CT binding to human 5-HT1A receptors; conditions: cloned human 5-HT1A receptors in HeLa cells (HA7)
T2 construct: expressed in transfected cells; host or cells: HeLa cells (HA7)
T2 sequence (P08908 1-422): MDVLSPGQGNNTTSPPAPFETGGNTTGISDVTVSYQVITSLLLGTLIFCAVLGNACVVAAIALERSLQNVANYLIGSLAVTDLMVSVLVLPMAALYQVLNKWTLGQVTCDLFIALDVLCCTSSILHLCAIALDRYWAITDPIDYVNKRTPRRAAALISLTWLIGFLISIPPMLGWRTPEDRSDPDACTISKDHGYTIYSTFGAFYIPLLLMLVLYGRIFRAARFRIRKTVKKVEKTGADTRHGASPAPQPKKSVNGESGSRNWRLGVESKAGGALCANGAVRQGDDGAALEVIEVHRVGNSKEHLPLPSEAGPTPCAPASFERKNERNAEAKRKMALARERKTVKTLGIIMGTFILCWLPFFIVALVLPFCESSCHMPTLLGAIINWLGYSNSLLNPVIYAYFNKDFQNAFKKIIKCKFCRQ
Method: The affinity of the compounds of the invention to 5-HT1A receptors was determined by measuring the inhibition of binding of a radioactive ligand at 5-HT1A receptors as described in the following test:
Inhibition of ^3H-5-CT Binding to Human 5-HT1A Receptors
By this method the inhibition by drugs of the binding of the 5-HT1A agonist ^3H-5-carboxamido tryptamine (3H-5-CT) to cloned human 5-HT1A receptors stably expressed in transfected HeLa cells (HA7) (Fargin, A. et al, J. Biol. Chem., 1989, 264, 14848) is determined in vitro. The assay was performed as a modification of the method described by Harrington, M. A. et at, J. Pharmacol. Exp. Ther., 1994, 268, 1098. Human 5-HT1A receptors (40 μg of cell homogenate) were incubated for 15 minutes at 37° C. in 50 mM Tris buffer at pH 7.7 in the presence of ^3H-5-CT. Non-specific binding was determined by including 10 μM of metergoline. The reaction was terminated by rapid filtration through Unifilter GF/B filters on a Tomtec Cell Harvester. Filters were counted in a Packard Top Counter.

Row | Compound | inhibition at 0.05 µM ([1]; at 50 nM) [%] | inhibition at 0.1 µM ([2]; at 100 nM) [%] | IC50 [1] [nM] | IC50 [2] [nM] | further results
1 | Cc1ccccc1SCCN1CCN(c2cccc3c2OCCO3)CC1 [Compound 7bo, 1-(2,3-Dihydro-benzo[1,4]dioxin-5-yl)-4-(2-o-tolylsulfanyl-ethyl)-piperazine] | 102 | 91 | – | – | –
2 | COc1ccc(OC)c(SCCCN2CCN(c3cccc4c3OCCO4)CC2)c1 [Compound 7bk, 1-(2,3-Dihydro-benzo[1,4]dioxin-5-yl)-4-[3-(2,5-dimethoxy-phenylsulfanyl)-propyl]-piperazine] | 84 | 91 | – | – | –
3 | Clc1cccc(SCCN2CCN(c3cccc4c3OCCO4)CC2)c1 [Compound 7au, 1-[2-(3-Chloro-phenylsulfanyl)-ethyl]-4-(2,3-dihydro-benzo[1,4]dioxin-5-yl)-piperazine] | 87 | 84 | – | – | –
4 | Cc1cccc(SCCCN2CCN(c3cccc4c3OCCO4)CC2)c1 [Compound 7aq, 1-(2,3-Dihydro-benzo[1,4]dioxin-5-yl)-4-(3-m-tolylsulfanyl-propyl)-piperazine] | 82 | 101 | – | – | –
5 | Cc1cccc(C)c1SCCCCN1CCN(c2cccc3c2OCCO3)CC1 [Compound 7ac, 1-(2,3-Dihydro-benzo[1,4]dioxin-5-yl)-4-[4-(2,6-dimethyl-phenylsulfanyl)-butyl]-piperazine] | 96 | 96 | – | – | –
6 | Fc1ccc(SCCCN2CCN(c3cccc4ccsc34)CC2)c(Cl)c1 [Compound 2e, 1-Benzo[b]thiophen-7-yl-4-[3-(2-chloro-4-fluoro-phenylsulfanyl)-propyl]-piperazine] | – | – | 5.4 | – | –
7 | N#Cc1ccc(N2CCN(CCCOc3ccccc3Cl)CC2)c2c1OCCO2 [Compound 6c, 8-{4-[3-(2-Chloro-phenoxy)-propyl]-piperazin-1-yl}-2,3-dihydro-benzo[1,4]dioxine-5-carbonitrile] | – | – | 13 | 68 | –
8 | Clc1cccc(SCCCN2CCN(c3cccc4c3OCCO4)CC2)c1Cl [Compound 7al, 1-[3-(2,3-Dichloro-phenylsulfanyl)-propyl]-4-(2,3-dihydro-benzo[1,4]dioxin-5-yl)-piperazine] | 97 | 98 | – | – | –
9 | Fc1ccc(OCCCN2CCN(c3cccc4c3OCCO4)CC2)c(F)c1 [Compound 5cf, 1-[3-(2,4-Difluoro-phenoxy)-propyl]-4-(2,3-dihydro-benzo[1,4]dioxin-5-yl)-piperazine] | – | – | 1.4 | 4.9 | –
10 | N#Cc1cccc(OCCCCN2CCN(c3cccc4c3OCCO4)CC2)c1 [Compound 7bh, 3-{4-[4-(2,3-Dihydro-benzo[1,4]dioxin-5-yl)-piperazin-1-yl]-butoxy}-benzonitrile] | 84 | 95 | – | – | –
11 | Fc1cc(Br)c(OCCCCN2CCN(c3cccc4c3OCCO4)CC2)c(Br)c1 [Compound 5by] | – | – | 4.3 | 2.5 | –
12 | Clc1ccc(SCCCN2CCN(c3cccc4c3OCCO4)CC2)cc1Cl [Compound 7am, 1-[3-(3,4-Dichloro-phenylsulfanyl)-propyl]-4-(2,3-dihydro-benzo[1,4]dioxin-5-yl)-piperazine] | 99 | 100 | – | – | –
13 | c1ccc(SCCCN2CCN(c3cccc4c3OCCO4)CC2)cc1 [Compound 4a, 1-(2,3-Dihydro-benzo[1,4]dioxin-5-yl)-4-(3-phenylsulfanyl-propyl)-piperazine] | – | – | 1.3 | 2.8 | –
14 | Cc1cccc(Cl)c1SCCCCN1CCN(c2cccc3c2OCCO3)CC1 [Compound 5av, 1-[4-(2-Chloro-6-methyl-phenylsulfanyl)-butyl]-4-(2,3-dihydro-benzo[1,4]dioxin-5-yl)-piperazine] | – | – | 1.4 | 5.1 | –
15 | 1-[2-(Bromo-trifluoromethyl-phenylsulfanyl)-ethyl]-4-(2,3-dihydro-benzo[1,4]dioxin-5-yl)-piperazine [Compound 3c] | – | – | 35 | 11 | –
16 | N#Cc1ccc(OCCCCN2CCN(c3cccc4c3OCCO4)CC2)c(Cl)c1 [Compound 7bb, 3-Chloro-4-{4-[4-(2,3-dihydro-benzo[1,4]dioxin-5-yl)-piperazin-1-yl]-butoxy}-benzonitrile] | 94 | 101 | – | – | –
17 | Fc1cc(Br)cc(F)c1OCCCCN1CCN(c2cccc3c2OCCO3)CC1 [Compound 5bz, 1-[4-(4-Bromo-2,6-difluoro-phenoxy)-butyl]-4-(2,3-dihydro-benzo[1,4]dioxin-5-yl)-piperazine] | – | – | 10 | 5 | –
18 | Fc1cc(Br)c(OCCCN2CCN(c3cccc4c3OCCO4)CC2)c(Br)c1 [Compound 5aj, 1-[3-(2,6-Dibromo-4-fluoro-phenoxy)-propyl]-4-(2,3-dihydro-benzo[1,4]dioxin-5-yl)-piperazine] | – | – | 13 | 3.4 | –
19 | Fc1cc(F)c(OCCCN2CCN(c3cccc4ccsc34)CC2)c(Br)c1 [Compound 5bt, 1-Benzo[h]thiophen-7-yl-4-[3-(2-bromo-4,6-difluoro-phenoxy)-propyl]-piperazine] | – | – | 6.3 | 8.6 | –
20 | CC1(C)COc2c(N3CCN(CCCOc4c(Cl)cc(F)cc4Cl)CC3)cc(Cl)cc21 [Compound 5bl, 1-(5-Chloro-3,3-dimethyl-2,3-dihydro-benzofuran-7-yl)-4-[3-(2,6-dichloro-4-fluoro-phenoxy)-propyl]-piperazine] | – | – | 26 | 88 | –
21 | Clc1ccc(Cl)c(SCCCN2CCN(c3cccc4c3OCCO4)CC2)c1 [Compound 7ay, 1-[3-(2,5-Dichloro-phenylsulfanyl)-propyl]-4-(2,3-dihydro-benzo[1,4]dioxin-5-yl)-piperazine] | 102 | – | – | 2 | –
22 | Clc1cccc(Cl)c1SCCCCN1CCN(c2cccc3c2OCCO3)CC1 [Compound 5ab, 1-[4-(2,6-Dichloro-phenylsulfanyl)-butyl]-4-(2,3-dihydro-benzo[1,4]dioxin-5-yl)-piperazine] | – | – | 2.1 | 1.9 | –
23 | Fc1ccc(SCCCN2CCN(c3cccc4ccsc34)CC2)c(Cl)c1 [Compound 5ai, 1-Benzo[b]thiophen-7-yl-4-[3-(2-chloro-4-fluoro-phenylsulfanyl)-propyl]-piperazine] | – | – | 2.9 | – | –
24 | Clc1ccc(Cl)c(SCCN2CCN(c3cccc4c3OCCO4)CC2)c1 [Compound 7at, 1-[2-(2,5-Dichloro-phenylsulfanyl)-ethyl]-4-(2,3-dihydro-henzo[1,4]dioxin-5-yl)-piperazine] | – | – | – | – | Inhibition of 3H-YM-09151-2 binding % inhibition at 50 nM ([1]; at 50 nM): 92%; Inhibition of 3H-5-CT Binding % inhibition at 100 nM ([2]; at 100 nM): 88%
25 | Clc1ccccc1SCCCN1CCN(c2cccc3c2OCCO3)CC1 [Compound 5cd, 1-[3-(2-Chloro-phenylsulfanyl)-propyl]-4-(2,3-dihydro-benzo[1,4]dioxin-5-yl)-piperazine] | – | – | 2.3 | 8.8 | –
26 | Cc1ccc(Cl)c(OCCCCN2CCN(c3cccc4c3OCCO4)CC2)c1 [Compound 7ao, 1-[4-(2-Chloro-5-methyl-phenoxy)-butyl]-4-(2,3-dihydro-benzo[1,4]dioxin-5-yl)-piperazine] | 89 | 97 | – | – | –
27 | Cc1cccc(Cl)c1SCCCCN1CCN(c2cc(Cl)cc3c2OC(C)(C)C3)CC1 [Compound 5ax, 1-(5-Chloro-2,2-dimethyl-2,3-dihydro-benzofuran-7-yl)-4-[4-(2-chloro-6-methyl-phenylsulfanyl)-butyl]-piperazine] | – | 33 | 23 | – | –
28 | Fc1ccc(SCCCN2CCN(c3cccc4ccsc34)CC2)c(Cl)c1 [Compound 5ad, 1-Benzo[b]thiophen-7-yl-4-[3-(2-chloro-4-fluoro-phenylsulfanyl)-propyl]-piperazine] | – | – | 6.6 | – | –
